In series [1] the test system is TXNIP mRNA. In words: Human skin explant, TXNIP gene expression. Format: cell-based. The conditions noted are these: human skin explants, topical, 24 h; for TXNIP Relative ED50: weighted geometric mean ± SD. As to the method: NativeSkin models (NS002) were purchased from Genoskin, France. Human skin samples from abdominal reduction surgery were obtained by Genoskin from donors upon written informed consent. Full ethical approval for the study protocol was obtained from the French ethical research committee (Comité de Protection des Personnes), and authorization was given by the French Ministry of Research. The study was conducted according to the Declaration of Helsinki. 8 mm punch biopsies were excised and embedded in a fibrin-based matrix in transwells and a silicone ring was firmly attached to the surface covering the outer edge of the skin biopsy to prevent lateral diffusion of topically applied formulations. Skin models were cultured in a defined hydrocortisone- and serum-free medium provided by Genoskin.
LEO 134310 and reference glucocorticoids were dissolved in propylene carbonate and tested at 4 concentrations in five- or tenfold titrations. Compounds were applied in duplicates or triplicates on the skin surface (0.5 cm^2) in a volume of 2 µL and incubated for 24 h. Vehicle and untreated samples were included for basal level of expression.
RNA was extracted and qPCR was performed using TaqMan gene expression assays (FKBP5-Hs01561006_m1, TSC22D3 (GILZ)-Hs00608272_m1, TXNIP-Hs01006900_g1, ACTB-Hs99999903_m1, PPIA-Hs99999904_m1, GAPDH-Hs99999905_m1). Gene expression of FKBP5,TSC22D3 (GILZ), and TXNIP was normalized to the geometric mean of the reference genes ACTB, PPIA and GAPDH.
Doses were expressed as compound (API) concentrations (µg/mL) in the applied formulations. Relative upregulation of FKBP5 was estimated as − fold to vehicle treated control. Effective doses (Emax and ED50) were determined from a sigmoid Emax model in Phoenix64 version 8.0, Pharsight, Certara. Mean values and standard deviation of Emax and ED50 were calculated by weighing individual experiments based on the intra- and inter-experiment variability.

Series [2] concerns LPS-induced TNF-alpha release in PBMCs. Description: TNF-alpha inhibition assay, human PBMCs. The following applies: for EC50: geometric mean; for Potency compared to LEO 134310, TNF-alpha release: human PBMC assay. The format is cell-based. As to the method:
(§1) PMBCs were isolated from human buffy coats or animal whole blood (EDTA-treated). Buffy coats from anonymized healthy adult blood donors were obtained from the Blood Bank of the National University Hospital Copenhagen in accordance with national legislation. Whole blood from mice (obtained from Charles River) was sampled at the animal facility at LEO Pharma and whole blood from pigs was sourced from ScanTox. Test compounds and PBMCs were incubated with 1 µg/ml LPS (Sigma) overnight at 37 °C in HEPES and Glutamax-containing RPMI medium supplemented with either 0.5% human serum albumin (human PBMCs) or 10% fetal bovine serum (mouse and pig PBMCs) and penicillin/streptomycin. TNF-alpha was measured using AlphaLISA (Perkin Elmer).
(§2) IC50 of test compounds was determined by 10-point titrations in duplicates. IC50 values and other parameters were calculated by sigmoidal curve fitting in Assay Explorer.

Series [3] relates to minipig skin. In words: Local tolerance study in minipigs (skin atrophy). Format: in vivo. The following applies: for Discoloration of application sites: 4 weeks topical; for Reduction in epidermal thickness: 4 weeks, vs untreated and vehicle controls. On the procedure: 5 male Göttingen SPF minipigs (5–7 months old; body weight 12–15 kg) were obtained from Ellegaard Göttingen Minipigs A/S, Dalmose, Denmark.
Each animal was treated for 6 h daily over 28 days with 25 µL of the following topical formulations on an application area of 2.5 cm × 2.5 cm: Vehicle (transcutol:acetone (1:9) with 10% hydroxy-propyl-cellulose); Dermovate cream (CP 0.05%), CP 0.05% in vehicle; Betnovate cream (BMV 0.1%); BMV 0.1% in vehicle; LEO 134310 2% in vehicle. One test field on each animal remained untreated.
Formulations were spread uniformly over the indicated clipped area and covered with porous gauze dressing. At the end of each exposure period all application site as well as the untreated area were rinsed with a mild soap (Abena Mild cream soap, Abena A/S, Denmark) in water and dried with a paper towel.
Skin biopsies were taken from anaesthetized animals 24 h after the last treatment. Samples for histopathological examination were fixed in phosphate buffered neutral 4% formaldehyde and stained with H&E. Mean arithmetic epidermal thickness was determined by measuring epidermal area, excluding stratum corneum, and dividing this area with the length of the epidermis. All measurements were performed on H&E stained and scanned slides using the Visiopharm software.

Series [4] deals with T1, mineralocorticoid receptor (MR) (Homo sapiens, UniProt P08235).
T1 sequence (P08235 1-984): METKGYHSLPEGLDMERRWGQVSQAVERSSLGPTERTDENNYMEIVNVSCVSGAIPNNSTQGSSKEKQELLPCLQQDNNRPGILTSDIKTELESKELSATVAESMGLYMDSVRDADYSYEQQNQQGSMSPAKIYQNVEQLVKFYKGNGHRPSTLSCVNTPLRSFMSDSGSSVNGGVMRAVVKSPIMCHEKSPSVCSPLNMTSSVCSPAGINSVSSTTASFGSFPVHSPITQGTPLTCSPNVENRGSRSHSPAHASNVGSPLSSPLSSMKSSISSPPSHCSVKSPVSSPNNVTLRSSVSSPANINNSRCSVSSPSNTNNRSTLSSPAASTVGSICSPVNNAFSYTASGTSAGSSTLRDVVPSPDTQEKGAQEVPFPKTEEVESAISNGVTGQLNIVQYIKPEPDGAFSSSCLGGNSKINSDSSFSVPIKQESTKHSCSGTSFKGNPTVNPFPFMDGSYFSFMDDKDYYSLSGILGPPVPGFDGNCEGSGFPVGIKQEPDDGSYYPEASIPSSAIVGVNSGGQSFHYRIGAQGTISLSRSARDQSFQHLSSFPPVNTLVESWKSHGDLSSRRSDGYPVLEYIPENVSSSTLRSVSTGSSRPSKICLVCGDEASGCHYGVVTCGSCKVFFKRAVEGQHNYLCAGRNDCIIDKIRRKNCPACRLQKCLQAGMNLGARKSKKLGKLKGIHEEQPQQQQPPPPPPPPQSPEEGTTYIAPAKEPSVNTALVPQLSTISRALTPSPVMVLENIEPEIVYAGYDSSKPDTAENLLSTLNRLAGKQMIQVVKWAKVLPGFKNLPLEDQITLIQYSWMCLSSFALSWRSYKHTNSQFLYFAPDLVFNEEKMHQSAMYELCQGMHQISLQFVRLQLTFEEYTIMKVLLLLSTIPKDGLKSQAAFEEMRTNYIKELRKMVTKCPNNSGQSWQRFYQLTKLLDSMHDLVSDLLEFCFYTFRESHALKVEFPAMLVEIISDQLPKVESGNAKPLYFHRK
Description: MR agonist assay, MR-luciferase reporter cells. The format is cell-based. The conditions noted are these: 24 h incubation; 'in contrast' = unlike LEO 134310, which gave no significant activation. On the procedure: Assays were performed at Indigo Biosciences according to standard protocols. In brief, MR-luciferase reporter cells were incubated with medium containing charcoal-stripped fetal bovine serum and incubated with test and reference compounds for 24 h before measuring luminescence. Data were fitted by the means of four parameter logistic regression.

The subject of series [5] is LPS-induced TNF-alpha release in PBMCs. Description: TNF-alpha inhibition assay, mouse PBMCs. Format: cell-based. The conditions noted are these: for EC50: geometric mean. On the procedure:
as §1, §2

Where [6] appears, read: CP 0.05%, BMV 0.1%, 6 h daily semi-occlusion.

The text below walks through data of publication PMC8795149, “Characterization of a novel non-steroidal glucocorticoid receptor agonist optimized for topical treatment” (Scientific Reports, 2022).

For orientation: Emax means the size of the effect at its maximum, as opposed to the concentration needed. For orientation: EC50 means the concentration that produces a half-maximal response.

For `CCCCC(=O)O[C@]1(C(=O)CO)[C@@H](C)C[C@H]2[C@@H]3CCC4=CC(=O)C=C[C@]4(C)[C@@]3(F)[C@@H](O)C[C@@]21C` [BMV, Betamethasone Valerate], in series [1], the “TXNIP Emax” value is on record as 17 ± 17 fold to control and the “TXNIP Relative ED50” value is listed as 52 ± 15 µg/mL. For the same molecule, in series [2] (PBMC, Human PBMCs), the Emax was 79% and the EC50 came out at 3.2 nM. In series [2], the “Potency compared to LEO 134310, TNF-alpha release” value was “equipotent”. The “Discoloration of application sites” value in series [3] is “notable discoloration was observed in most application sites”. Besides, in series [3] (setting [6]), the “Reduction in epidermal thickness” value was 30–40%. Besides, the “Activation of MR (luciferase activity)” value in series [4] is on record as “in contrast”. Further, in series [5] (PBMC), the Emax was found to be 95% and the EC50 amounted to 0.22 nM.

Take `CCC(=O)O[C@]1(C(=O)CCl)[C@@H](C)C[C@H]2[C@@H]3CCC4=CC(=O)C=C[C@]4(C)[C@@]3(F)[C@@H](O)C[C@@]21C` [CP, Clobetasol Propionate]: in series [1], the “TXNIP Emax” value was 19 ± 8.5^NS fold to control and the “TXNIP Relative ED50” value was 1.3 ± 0.33 µg/mL. In series [2] (PBMC, Human PBMCs), this molecule showed an Emax of 79% and an EC50 of 0.52 nM. In addition, the “Potency compared to LEO 134310, TNF-alpha release” value in series [2] is listed as “fourfold more potent”. Further, the “Discoloration of application sites” value in series [3] is on record as “notable discoloration was observed in most application sites”. The “Reduction in epidermal thickness” value in series [3] (setting [6]) is 30–40%. Also, the “Activation of MR (luciferase activity)” value in series [4] is on record as “in contrast”. In series [5] (PBMC), this molecule returned an Emax of 95% and an EC50 of 0.15 nM.

For the molecule `C[C@H](NC(=O)[C@H]1CCCO1)[C@H](Oc1ccc(C(=O)O[C@H]2CCCN(C(=O)[C@H]3COC(=O)C3)C2)cc1)c1ccc(C2CC2)cc1` [LEO 134310], in series [1], the “TXNIP Emax” value is 19 ± 7.3^NS fold to control and the “TXNIP Relative ED50” value is recorded as 110 ± 300^NS µg/mL. For the same molecule, in series [2] (Human PBMCs), the “Inhibition of LPS-induced TNF-alpha release Emax” value is 77% and the half-maximal effective concentration (EC50) worked out at 2.3 nM. The “Reduction in epidermal thickness” value in series [3] (LEO 134310 2%, 6 h daily) was “did not result in any significant reduction in epidermal thickness”. Moreover, in series [4], the “Activation of MR (luciferase activity)” value is “No significant activation of MR”. In addition, in series [5], the “Inhibition of LPS-induced TNF-alpha release Emax” value is reported as 102% and the EC50 was 0.58 nM.
